Test results reported in patent US5025036A, “Catechol carboxylic acids” (Hoffmann-La Roche Inc., priority 1989, dated 1991).

Each compound was assayed against T1, Δ^5 -lipoxygenase from rat basophilic leukemia (RBL-1) cells (Rattus norvegicus, UniProt P12527) (assay: In vitro test for Δ^5-lipoxygenase inhibitors (5-HETE radioimmunoassay)). Details: RBL-1 5-LO, 5-HETE formation; read-out: Inhib. of Δ^5 Lipoxygenase IC50.
T1 construct: The isolated cytosolic fraction was stored in liquid N2 for up to 8 weeks without loss of 5-LO enzyme activity; endogenous in cells; host or cells: RBL-1 cells (ATCC CRL 1378), 113,000×g supernatant (cytosol)
T1 sequence (P12527 1-673): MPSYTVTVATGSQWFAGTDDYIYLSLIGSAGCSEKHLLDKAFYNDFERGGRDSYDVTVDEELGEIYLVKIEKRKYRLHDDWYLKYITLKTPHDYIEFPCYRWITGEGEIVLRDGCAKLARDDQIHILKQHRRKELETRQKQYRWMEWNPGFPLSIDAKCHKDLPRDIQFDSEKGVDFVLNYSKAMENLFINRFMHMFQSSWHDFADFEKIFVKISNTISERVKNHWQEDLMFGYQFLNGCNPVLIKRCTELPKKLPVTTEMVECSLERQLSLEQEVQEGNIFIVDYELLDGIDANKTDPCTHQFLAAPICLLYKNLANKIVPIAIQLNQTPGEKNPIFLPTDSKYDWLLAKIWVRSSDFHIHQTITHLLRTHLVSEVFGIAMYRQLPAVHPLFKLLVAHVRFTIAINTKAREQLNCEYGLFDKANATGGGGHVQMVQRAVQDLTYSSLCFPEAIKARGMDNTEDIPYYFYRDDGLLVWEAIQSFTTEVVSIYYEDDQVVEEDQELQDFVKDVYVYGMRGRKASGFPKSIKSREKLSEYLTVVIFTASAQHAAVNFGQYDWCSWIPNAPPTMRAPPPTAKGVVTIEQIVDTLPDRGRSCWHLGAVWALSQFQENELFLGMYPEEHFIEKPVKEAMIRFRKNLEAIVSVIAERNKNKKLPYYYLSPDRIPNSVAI
Type: biochemical
Description: RBL-1 cells (CRL 1378) were obtained from the American Type Culture Collection, Rockville, MD. DMEM and glutamine were purchased from Flow Labs, McLean, Va. FBS (Gibco, Grand Island, N.Y.) was heat-inactivated for 1 hour at 56° C. Reagents for protein determinations were obtained from Biorad, Rockville Center, N.Y. Arachidonic acid (approx. 99%), ATP (disodium salt), BHT, dextran (clinical grade), tetrasodium EDTA, gelatin, gentamycin sulfate solution, reduced glutathione, 1 M HEPES buffer, indomethacin, NaCl, reduced NADPH, Trizma 7.2, and Trizma 8.5 were purchased from Sigma Chemical, St. Louis, Mo. CaCL2 dihydrate, Norit A charcoal, and citric acid monohydrate were obtained from Fisher Scientific, Pittsburgh, Pa. […] A synthetic 5-HETE standard was supplied by Dr. M. Rosenberger, Dept. of Medicinal Chemistry, Hoffmann La-Roche, Nutley, N.J.; [see Corey, E. J., and Hashimoto, S. (1981) Tet. […] Approximately 7-9 days after thawing, RBL-1 cells growing in log phase were seeded at a density of 7500 viable cells/ml in a closed 89-liter spinner flask. […] RBL-1 cells were harvested by centrifugation at 4° C. at 1500×g for 10 minutes and were washed 3 times with ice cold 0.05M tris-hCl, pH 7.2, tetrasodium EDTA (buffer 1). The cells were washed last in 0.05M Tris-HCl containing 14 μM indomethacin, 1 mM glutathione, 1.5 mM NaCl, and 1 mM tetrasodium EDTA (buffer 2), resuspended at a density of 5×108'/ml approximately 10 ml) and disrupted manually at 4° C. using a 40 ml Dounce (type A pestle) homogenizer. After 5 minutes of homogenization, 95% cell lysis was confirmed by phase contrast microscopy. The broken cells were diluted 1:2 with buffer 2 and centrifuged at 12,380×g for 10 minutes at 4° C. to pellet cellular debris and granules. The 12,380×g supernatant was centrifuged at 113,000×g for 60 minutes to pellet microsomes. The high-speed supernatant (5.9±0.48 mg/ml protein) was frozen immediately in 1 ml aliquots using a dry ice/acetone bath. The isolated cytosolic fraction was stored in liquid N2 for up to 8 weeks without loss of 5-LO enzyme activity. Compounds were dissolved at 25 mM concentration in DMSO, then diluted to final concentrations using 95% ethanol. For a typical enzyme assay, the partially purified 5-LO preparation was preincubated with drug or vehicle for 10 minutes at 30° C. The assay tubes were then transferred at a 37° C. water bath where they received arachidonic acid (8.25 μM final concentration) to initiate 5-LO activity. […] The samples were immediately cooled on ice and neutralized by dilution with 0.05M Tris-HCl, pH 8.5, which contained 25 mg/1 BHT. A boiled cytosol control was placed at the end of each assay to emasure non-enzymatic oxidation of arachidonic acid. […] Under the assay conditions described, the 5-LO catalyzed the conversion of arachidonic acid to 5-HPETE which, as a consequence of peroxidase activity, was reduced to 5-HETE. A specific radioimmunoassay was employed to quantitate the amount (pmoles) of 5-HETE formed during the enzyme reaction. To prepare the immunogen, Dr. M. Rosenberger (Dept. of Medicinal Chemistry) converted the racemic 5-HETE lactone (Corey, E. J., and Hashimoto, S. (1981) Tet. Letters, 22, 299-302) to its hydrazine derivative. The hydrazide was conjugated to thiolated Keyhole Limpet Hemocyanin (Young, […]., and Rokach, J. (1982) Prostaglandins 23, 603-613) using N-ethyl-maleimide as previously described for LTB4 by (Young, R., N, Zomboni, R. and Rokach, J. 91983) Prostaglandins, 26, 605-613). New Zealand White rabbits received multiple intradermal injections on their backs with […] conjugate emulsified in complete Freund's adjuvant. A schedule of injections reported by Salmon (Salmon, J. A. (1978) Prostaglandins, 15, 383-397) was followed. After the monthly i.p. booster injections, blood was obtained from the marginal ear vein 5-7 days later and assessed for antibody titer. […]
With `CCCc1c(OCCCCCCc2cccc(O)c2O)ccc(C(C)=O)c1O` [1-[2-hydroxy-4-[6-(2,3-dihydroxyphenyl)hexyloxy]-3-propylphenyl]ethanone] the IC50 was 30 nM.
Compound `CCCc1c(OCCCCc2cccc(O)c2O)ccc(C(=O)O)c1O` [4-[4-(2,3-dihydroxyphenyl)butoxy]-2-hydroxy-3-propylbenzoic acid] has an IC50 of 90 nM.
Work on `CCCc1c(OCCCCCc2cccc(O)c2O)ccc(C(=O)O)c1O` [4-[5-(2,3-Dihydroxyphenyl)pentyloxy]-2-hydroxy-3-propylbenzoic acid] yielded an IC50 of 6 nM.
`CCCc1c(OCCCCCCc2cccc(O)c2O)ccc(C(=O)O)c1O` [4-[6-(2,3-Dihydroxyphenyl)hexyloxy]-2-hydroxy-3-propylbenzoic acid] showed an IC50 of 20 nM.
In the case of `O=C(O)c1ccc(OCCCCCCc2cccc(O)c2O)cc1O` [4-[6-(2,3-Dihydroxyphenyl)hexyloxy]-2-hydroxybenzoic acid], the IC50 is reported as 320 nM.
`O=C(O)c1ccc(OCCCCCCc2cccc(O)c2O)cc1` [4-[6-(2,3-Dihydroxyphenyl)hexyloxy]benzoic acid] was tested, and the IC50 was 170 nM.
For `CCCc1c(OCCCCCCc2ccc(O)c(O)c2)ccc(C(=O)O)c1O` [4-[6-(3,4-dihydroxyphenyl)hexyloxy]-2-hydroxy-3-propylbenzoic acid], the IC50 was 5 nM.
Work on `CCCc1c(OCCCCCCc2ccc(C(C)C)c(O)c2O)ccc(C(=O)O)c1O` [4-[6-[2,3-dihydroxy-4-(1-methylethyl)phenyl]hexyloxy]-2-hydroxy-3-propylbenzoic acid] yielded an IC50 of 100 nM.
Work on `CCCc1c(OCCCCCCCc2cccc(O)c2O)ccc(C(=O)O)c1O` [4-[7-(2,3-dihydroxyphenyl)heptyloxy]-2-hydroxy-3-propylbenzoic acid] yielded an IC50 of 5 nM.
`CCCc1c(OCCCCCCCCCCc2cccc(O)c2O)ccc(C(=O)O)c1O` [4-[10-(2,3-dihydroxyphenyl)decyloxy]-2-hydroxy-3-propylbenzoic acid] showed an IC50 of 20 nM.

Same assay, conditions: read-out: Inhib. of Δ^5 Lipoxygenase, % inhibition at 0.01 μM
`CCCc1c(OCCCCc2cccc(O)c2O)ccc(C(C)=O)c1O` [1-[2-Hydroxy-4-[4-(2,3-dihydroxyphenyl)butoxy]-3-propylphenyl]ethanone] was tested, and the inhibition at 0.01 µM was 48%.

Same assay, conditions: read-out: Inhib. of Δ^5 Lipoxygenase, % inhibition at 0.1 μM
Compound `CCCc1c(OCCCCCCc2ccc(C(C)C)c(O)c2O)ccc(C(C)=O)c1O` [1-[2-hydroxy-4 [6-[2,3 dihydroxy-4-(1-methylethyl)phenyl]hexyloxy]-3 propylphenyl]ethanone] has an inhibition at 0.1 µM of 35%.
`CCCc1c(OCCCCCCCCc2cccc(O)c2O)ccc(C(=O)O)c1O` [4-[8-(2,3-dihydroxyphenyl)octyloxy]-2-hydroxy-3-propylbenzoic acid] was tested, and the inhibition at 0.1 µM was 62%.
`CCCc1c(O)c(C(=O)O)cc(Cl)c1OCCCCCCc1cccc(O)c1O` [5-Chloro-2-hydroxy-4-[6-(2,3-dihydroxyphenyl]hexyloxy]-3-propylbenzoic acid] was tested, and the inhibition at 0.1 µM was 48%.

Same assay, conditions: read-out: Inhib. of Δ^5 Lipoxygenase, % inhibition at 1 μM
`CCCc1c(OCCCc2ccc(O)c(O)c2)ccc(C(=O)O)c1O` [4-[3-(3,4-Dihydroxyphenyl)propoxy]-2-hydroxy-3-propylbenzoic acid] was tested, and the inhibition at 1 µM was 97%.
With `CCCc1c(OCCCCCCc2cccc(O)c2O)ccc(C(=O)OCC)c1O` [4-[6-(2,3-Dihydroxyphenyl)hexyloxy]-2-hydroxy-3-propylbenzoic acid ethyl ester] the inhibition at 1 µM was 100%.
